What follows are compounds tested against T1, chimeric human H3 receptor (Homo sapiens, UniProt Q9Y5N1) (assay: Chimeric human H3 receptor screening GTP binding assay (inhibition of histamine-stimulated GTP-gamma35S binding, Example 8)). Conditions: 1 h; assay of Example 8; symbol "!" in column headed Ki; read-out: percent inhibition of agonist-induced GTP-gammaS binding to H3.
T1 construct: rat Galpha-i2 (Gnai2, rat); made in house; host or cells: Sf9 insect cells (baculovirus); P2 membranes
Assay type: biochemical
Outline: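 Compound tested at 4 μM against 1 μM histamine stimulation; 125 pM GTP-gamma35S binding measured by filtration and scintillation after 60 min at room temperature. Membranes from Sf9 cells expressing chimeric human H3 plus G-protein subunits, in Tris pH 7.4/NaCl/MgCl2/GDP buffer; values are % inhibition after nonspecific subtraction.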

T1 sequence (Q9Y5N1 with tags, fused parts or gaps): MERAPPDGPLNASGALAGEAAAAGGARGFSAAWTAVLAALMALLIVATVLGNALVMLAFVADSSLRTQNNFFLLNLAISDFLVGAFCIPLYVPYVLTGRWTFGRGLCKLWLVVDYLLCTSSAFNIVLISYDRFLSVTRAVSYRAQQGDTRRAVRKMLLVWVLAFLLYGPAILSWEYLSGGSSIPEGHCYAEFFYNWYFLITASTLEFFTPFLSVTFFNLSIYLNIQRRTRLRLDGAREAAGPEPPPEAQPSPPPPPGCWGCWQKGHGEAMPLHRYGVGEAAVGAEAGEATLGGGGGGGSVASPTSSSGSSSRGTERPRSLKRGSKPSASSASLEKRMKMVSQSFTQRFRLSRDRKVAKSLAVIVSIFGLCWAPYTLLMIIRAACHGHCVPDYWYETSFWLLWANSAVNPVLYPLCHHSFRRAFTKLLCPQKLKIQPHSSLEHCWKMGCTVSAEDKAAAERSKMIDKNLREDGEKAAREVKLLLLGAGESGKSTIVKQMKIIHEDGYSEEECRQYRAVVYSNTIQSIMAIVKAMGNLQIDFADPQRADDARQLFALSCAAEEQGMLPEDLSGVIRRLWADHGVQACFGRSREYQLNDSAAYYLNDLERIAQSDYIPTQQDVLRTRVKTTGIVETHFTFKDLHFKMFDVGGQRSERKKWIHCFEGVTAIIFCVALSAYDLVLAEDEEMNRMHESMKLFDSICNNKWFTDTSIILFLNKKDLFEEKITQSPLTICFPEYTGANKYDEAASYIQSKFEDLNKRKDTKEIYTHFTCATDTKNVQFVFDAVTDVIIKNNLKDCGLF

Inhibition at 4 µM, ≥ 90%:
O=C(/C=C/c1cc2c(cc1Br)OCO2)N1CCc2cnc(N3CCN(C4CCC4)CC3)nc2CC1 [Compound 589, 7-[(2E)-3-(6-bromo-1,3-benzodioxol-5-yl)prop-2-enoyl]-2-(4-cyclobutylpiperazin-1-yl)-6,7,8,9-tetrahydro-5H-pyrimido[4,5-d]azepine]

Same assay, conditions: symbol ! in Ki; test compound 4 μM, 1 μM histamine; read-out: percent inhibition of agonist-induced GTP-gammaS binding to H3

Inhibition at 4 µM, ≥ 90%:
Fc1ccccc1CN1CCc2nc(N3CCN(C4CCC4)CC3)ncc2C1 [Compound 611, 2-(4-cyclobutylpiperazin-1-yl)-6-(2-fluorobenzyl)-5,6,7,8-tetrahydropyrido[4,3-d]pyrimidine]
Fc1cccc(CN2CCc3nc(N4CCN(C5CCC5)CC4)ncc3C2)c1 [Compound 612, 2-(4-cyclobutylpiperazin-1-yl)-6-(3-fluorobenzyl)-5,6,7,8-tetrahydropyrido[4,3-d]pyrimidine]
Fc1ccc(CN2CCc3nc(N4CCN(C5CCC5)CC4)ncc3C2)cc1 [Compound 613, 2-(4-cyclobutylpiperazin-1-yl)-6-(4-fluorobenzyl)-5,6,7,8-tetrahydropyrido[4,3-d]pyrimidine]
Cc1cccc(CN2CCc3nc(N4CCN(C5CCC5)CC4)ncc3C2)c1 [Compound 614, 2-(4-cyclobutylpiperazin-1-yl)-6-(3-methylbenzyl)-5,6,7,8-tetrahydropyrido[4,3-d]pyrimidine]
Cc1ccc(CN2CCc3nc(N4CCN(C5CCC5)CC4)ncc3C2)cc1 [Compound 615, 2-(4-cyclobutylpiperazin-1-yl)-6-(4-methylbenzyl)-5,6,7,8-tetrahydropyrido[4,3-d]pyrimidine]
Cn1ccnc1CN1CCc2nc(N3CCN(C4CCC4)CC3)ncc2C1 [Compound 616, 2-(4-cyclobutylpiperazin-1-yl)-6-[(1-methyl-1H-imidazol-2-yl)methyl]-5,6,7,8-tetrahydropyrido[4,3-d]pyrimidine]
c1ccc2c(CN3CCc4nc(N5CCN(C6CCC6)CC5)ncc4C3)ccnc2c1 [Compound 617, 2-(4-cyclobutylpiperazin-1-yl)-6-(quinolin-4-ylmethyl)-5,6,7,8-tetrahydropyrido[4,3-d]pyrimidine]
c1ccc2ncc(CN3CCc4nc(N5CCN(C6CCC6)CC5)ncc4C3)cc2c1 [Compound 618, 2-(4-cyclobutylpiperazin-1-yl)-6-(quinolin-3-ylmethyl)-5,6,7,8-tetrahydropyrido[4,3-d]pyrimidine]
Cc1cccc(CN2CCc3nc(N4CCN(C5CCC5)CC4)ncc3C2)n1 [Compound 619, 2-(4-cyclobutylpiperazin-1-yl)-6-[(6-methylpyridin-2-yl)methyl]-5,6,7,8-tetrahydropyrido[4,3-d]pyrimidine]
c1cncc(CN2CCc3nc(N4CCN(C5CCC5)CC4)ncc3C2)c1 [Compound 620, 2-(4-cyclobutylpiperazin-1-yl)-6-(pyridin-3-ylmethyl)-5,6,7,8-tetrahydropyrido[4,3-d]pyrimidine]
c1cc(N2CCOCC2)ncc1CN1CCc2nc(N3CCN(C4CCC4)CC3)ncc2C1 [Compound 621, 2-(4-cyclobutylpiperazin-1-yl)-6-[(6-morpholin-4-ylpyridin-3-yl)methyl]-5,6,7,8-tetrahydropyrido[4,3-d]pyrimidine]
Cc1cc(CN2CCc3nc(N4CCN(C5CCC5)CC4)ncc3C2)n(C)n1 [Compound 622, 2-(4-cyclobutylpiperazin-1-yl)-6-[(1,3-dimethyl-1H-pyrazol-5-yl)methyl]-5,6,7,8-tetrahydropyrido[4,3-d]pyrimidine]
COc1ccccc1CN1CCc2nc(N3CCN(C4CCC4)CC3)ncc2C1 [Compound 623, 2-(4-cyclobutylpiperazin-1-yl)-6-(2-methoxybenzyl)-5,6,7,8-tetrahydropyrido[4,3-d]pyrimidine]
COc1ccc(CN2CCc3nc(N4CCN(C5CCC5)CC4)ncc3C2)c(OC)c1 [Compound 624, 2-(4-cyclobutylpiperazin-1-yl)-6-(2,4-dimethoxybenzyl)-5,6,7,8-tetrahydropyrido[4,3-d]pyrimidine]
CC(C)c1ccc(CN2CCc3nc(N4CCN(C5CCC5)CC4)ncc3C2)cc1 [Compound 625, 2-(4-cyclobutylpiperazin-1-yl)-6-(4-isopropylbenzyl)-5,6,7,8-tetrahydropyrido[4,3-d]pyrimidine]
CC(C)CCN1CCc2nc(N3CCN(C4CCC4)CC3)ncc2C1 [Compound 626, 2-(4-cyclobutylpiperazin-1-yl)-6-(3-methylbutyl)-5,6,7,8-tetrahydropyrido[4,3-d]pyrimidine]
CCCN1CCc2nc(N3CCN(C4CCC4)CC3)ncc2C1 [Compound 627, 2-(4-cyclobutylpiperazin-1-yl)-6-propyl-5,6,7,8-tetrahydropyrido[4,3-d]pyrimidine]
CCCCN1CCc2nc(N3CCN(C4CCC4)CC3)ncc2C1 [Compound 628, 6-butyl-2-(4-cyclobutylpiperazin-1-yl)-5,6,7,8-tetrahydropyrido[4,3-d]pyrimidine]
CCCCCN1CCc2nc(N3CCN(C4CCC4)CC3)ncc2C1 [Compound 629, 2-(4-cyclobutylpiperazin-1-yl)-6-pentyl-5,6,7,8-tetrahydropyrido[4,3-d]pyrimidine]
CCCCCCN1CCc2nc(N3CCN(C4CCC4)CC3)ncc2C1 [Compound 630, 2-(4-cyclobutylpiperazin-1-yl)-6-hexyl-5,6,7,8-tetrahydropyrido[4,3-d]pyrimidine]
CC(C)CN1CCc2nc(N3CCN(C4CCC4)CC3)ncc2C1 [Compound 631, 2-(4-cyclobutylpiperazin-1-yl)-6-isobutyl-5,6,7,8-tetrahydropyrido[4,3-d]pyrimidine]
CCC(C)CN1CCc2nc(N3CCN(C4CCC4)CC3)ncc2C1 (stereo not shown) [Compound 632, 2-(4-cyclobutylpiperazin-1-yl)-6-(2-methylbutyl)-5,6,7,8-tetrahydropyrido[4,3-d]pyrimidine]
CCC(CC)CN1CCc2nc(N3CCN(C4CCC4)CC3)ncc2C1 [Compound 633, 2-(4-cyclobutylpiperazin-1-yl)-6-(2-ethylbutyl)-5,6,7,8-tetrahydropyrido[4,3-d]pyrimidine]
c1nc(N2CCN(C3CCC3)CC2)nc2c1CN(CC1CC1)CC2 [Compound 634, 2-(4-cyclobutylpiperazin-1-yl)-6-(cyclopropylmethyl)-5,6,7,8-tetrahydropyrido[4,3-d]pyrimidine]
CCCC(C)CN1CCc2nc(N3CCN(C4CCC4)CC3)ncc2C1 (stereo not shown) [Compound 635, 2-(4-cyclobutylpiperazin-1-yl)-6-(2-methylpentyl)-5,6,7,8-tetrahydropyrido[4,3-d]pyrimidine]
c1nc(N2CCN(C3CCC3)CC2)nc2c1CN(CC1CCOC1)CC2 (stereo not shown) [Compound 636, 2-(4-cyclobutylpiperazin-1-yl)-6-(tetrahydrofuran-3-ylmethyl)-5,6,7,8-tetrahydropyrido[4,3-d]pyrimidine]
Cc1ccc(CN2CCc3nc(N4CCN(C5CCC5)CC4)ncc3C2)cc1C [Compound 637, 2-(4-cyclobutylpiperazin-1-yl)-6-(3,4-dimethylbenzyl)-5,6,7,8-tetrahydropyrido[4,3-d]pyrimidine]
c1cc2c(cc1CN1CCc3nc(N4CCN(C5CCC5)CC4)ncc3C1)OCCO2 [Compound 638, 2-(4-cyclobutylpiperazin-1-yl)-6-(2,3-dihydro-1,4-benzodioxin-6-ylmethyl)-5,6,7,8-tetrahydropyrido[4,3-d]pyrimidine]
c1ccc2nc(CN3CCc4nc(N5CCN(C6CCC6)CC5)ncc4C3)ccc2c1 [Compound 639, 2-(4-cyclobutylpiperazin-1-yl)-6-(quinolin-2-ylmethyl)-5,6,7,8-tetrahydropyrido[4,3-d]pyrimidine]
COc1cccc(CN2CCc3nc(N4CCN(C5CCC5)CC4)ncc3C2)c1OC [Compound 640, 2-(4-cyclobutylpiperazin-1-yl)-6-(2,3-dimethoxybenzyl)-5,6,7,8-tetrahydropyrido[4,3-d]pyrimidine]
COc1ccc(OC)c(CN2CCc3nc(N4CCN(C5CCC5)CC4)ncc3C2)c1 [Compound 641, 2-(4-cyclobutylpiperazin-1-yl)-6-(2,5-dimethoxybenzyl)-5,6,7,8-tetrahydropyrido[4,3-d]pyrimidine]
CCn1cncc1CN1CCc2nc(N3CCN(C4CCC4)CC3)ncc2C1 [Compound 642, 2-(4-cyclobutylpiperazin-1-yl)-6-[(1-ethyl-1H-imidazol-5-yl)methyl]-5,6,7,8-tetrahydropyrido[4,3-d]pyrimidine]
c1cc(N2CCCC2)ncc1CN1CCc2nc(N3CCN(C4CCC4)CC3)ncc2C1 [Compound 643, 2-(4-cyclobutylpiperazin-1-yl)-6-[(6-pyrrolidin-1-ylpyridin-3-yl)methyl]-5,6,7,8-tetrahydropyrido[4,3-d]pyrimidine]

From patent US20080051387A1, “TETRAHYDROPYRIDO[3,4-D]PYRIMIDINES AND RELATED ANALOGUES” (priority 2006, published 2008)
